# Results from US20250018014A1, “METHOD FOR TREATING AND/OR PREVENTING REGNASE-1-RELATED DISEASE” (OSAKA UNIVERSITY, priority 2018, published 2025).
# Residues, ends and D or L forms follow the SMILES beside them.
# Columns and labels:
# [1] = target: T1, FL_Reg1 (full-length human Regnase-1) phosphorylation by TBK1 (Homo sapiens, UniProt Q5D1E8); assay: Regnase-1 phosphorylation inhibition by compounds (AlphaScreen), TBK1, full-length Regnase-1; format: biochemical; conditions: Table 13; phosphorylation by TBK1; read-out: Phosphorylation inhibition FL_Reg1, 50% inhibition concentration (TBK1)
# T1 construct: made in house; host or cells: Expi293 cells
# T1 sequence (Q5D1E8 1-599): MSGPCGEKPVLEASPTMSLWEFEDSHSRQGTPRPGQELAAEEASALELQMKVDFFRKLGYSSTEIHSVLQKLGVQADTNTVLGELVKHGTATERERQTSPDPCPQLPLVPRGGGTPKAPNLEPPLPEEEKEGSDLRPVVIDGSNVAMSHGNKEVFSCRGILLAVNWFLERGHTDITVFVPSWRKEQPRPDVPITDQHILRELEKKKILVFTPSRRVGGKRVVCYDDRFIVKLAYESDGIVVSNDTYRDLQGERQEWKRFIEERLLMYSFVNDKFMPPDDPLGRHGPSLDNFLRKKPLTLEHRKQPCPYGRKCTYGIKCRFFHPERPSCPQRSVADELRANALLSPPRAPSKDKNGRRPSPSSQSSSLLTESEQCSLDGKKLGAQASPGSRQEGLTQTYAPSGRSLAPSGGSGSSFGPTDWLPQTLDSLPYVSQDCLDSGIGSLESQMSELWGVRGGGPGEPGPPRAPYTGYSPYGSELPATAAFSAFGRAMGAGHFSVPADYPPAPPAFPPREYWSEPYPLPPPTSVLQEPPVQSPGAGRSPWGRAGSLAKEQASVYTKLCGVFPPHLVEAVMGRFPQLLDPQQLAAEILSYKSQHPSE
# Description: (§1) The full-length sequence of human Regnase-1 (UniProt ID: Q5D1E8) was used to prepare a construct having a FLAG tag on the N-terminal side and a recognition sequence for biotin ligase BirA on the C-terminal side (FL_Reg1) as a target protein. The above-mentioned Regnase-1 was expressed in mammalian Expi293 cells, purified with FLAG M2 agarose, and isolated by gel filtration chromatography. When biotinylation was required, methods from nonpatent documents (BMC biotechnology, 2008,8,41; and Protein Science, 1999,8,921-929) were used. […]
# (§2) Using Kinase assay buffer III (manufactured by SignalChem) supplemented with 2 mM DTT, 100 μM sodium vanadate, and 2 mM manganese chloride, kinase (IKKβ (manufactured by SignalChem) or TBK1 (manufactured by SignalChem)) and Regnase-1 were reacted in the presence of 10 μM ATP at room temperature for 2 hours to perform a phosphorylation reaction.
# (§3) Phosphorylated Regnase-1 was detected by the AlphaScreen system. After each of the above-mentioned phosphorylated Regnase-1 antibodies was added and reacted at room temperature for one hour, anti-FLAG AlphaLISA Acceptor Beads (manufactured by PerkinElmer) and Protein A AlphaScreen Donor Beads (manufactured by PerkinElmer) were added, and EnVision (manufactured by PerkinElmer) was used to measure the excited luminescence. As a result, phosphorylated Regnase-1 produced by the phosphorylation reaction by kinase was specifically detected, and signals were confirmed to be enhanced in a manner dependent on Regnase-1 and kinase concentrations (FIG. 24).
# (§4) After mixing 2 nM of the above-mentioned Regnase-1 and the compound, phosphorylated Regnase-1 produced by the phosphorylation reaction was detected by the AlphaScreen system. As the results, the inhibition rate was calculated from the signals obtained when adding the compound at each concentration, by defining the signal obtained with Regnase-1 alone to be 100% inhibition rate, and the signal obtained when the same amount of solvent (DMSO) is added in place of the compound as 0% inhibition rate. The 50% inhibition concentration (μM) was calculated from the obtained dose response curve (Table 11).
# [2] = target: T2, FL_Reg1 (full-length human Regnase-1) phosphorylation by IKKβ (Homo sapiens, UniProt Q5D1E8); assay: Regnase-1 phosphorylation inhibition by compounds (AlphaScreen), IKKβ, full-length Regnase-1; format: biochemical; conditions: Table 14; phosphorylation by IKKβ; read-out: Phosphorylation inhibition FL_Reg1, 50% inhibition concentration (IKKβ)
# T2 construct: made in house; host or cells: Expi293 cells
# T2 sequence (Q5D1E8 1-599): T1 sequence (Q5D1E8 1-599)
# Description: as §1, §2, §3, §4
# [3] = target: T3, ΔCTD_Reg1 (amino acids 1 to 546 of human Regnase-1) phosphorylation by IKKβ (Homo sapiens, UniProt Q5D1E8); assay: Regnase-1 phosphorylation inhibition by compounds (AlphaScreen), IKKβ, CTD-deficient Regnase-1; format: biochemical; conditions: Table 14; phosphorylation by IKKβ; read-out: Phosphorylation inhibition ΔCTD_Reg1, 50% inhibition concentration (IKKβ)
# T3 construct: made in house; host or cells: Expi293 cells
# T3 sequence (Q5D1E8 1-546): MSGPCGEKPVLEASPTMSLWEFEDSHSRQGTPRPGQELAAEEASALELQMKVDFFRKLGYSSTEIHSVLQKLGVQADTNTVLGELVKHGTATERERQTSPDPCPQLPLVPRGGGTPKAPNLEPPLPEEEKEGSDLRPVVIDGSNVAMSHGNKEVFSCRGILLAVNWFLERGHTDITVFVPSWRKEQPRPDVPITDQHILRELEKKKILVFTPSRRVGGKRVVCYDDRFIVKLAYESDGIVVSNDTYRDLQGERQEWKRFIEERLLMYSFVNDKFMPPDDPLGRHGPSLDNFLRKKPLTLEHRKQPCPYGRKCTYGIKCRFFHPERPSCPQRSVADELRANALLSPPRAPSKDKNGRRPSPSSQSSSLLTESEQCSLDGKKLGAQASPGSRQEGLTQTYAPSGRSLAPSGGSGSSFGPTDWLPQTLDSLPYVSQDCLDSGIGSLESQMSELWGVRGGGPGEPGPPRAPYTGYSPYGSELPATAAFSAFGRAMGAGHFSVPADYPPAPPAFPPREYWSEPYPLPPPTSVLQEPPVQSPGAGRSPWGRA
# Method: Among the full-length human Regnase-1 sequence, the 1st to 546th amino acid sequence was prepared and made into a construct having a FLAG tag on the N-terminal side and a biotin ligase BirA recognition sequence on the C-terminal side (herein, a Regnase-1 lacking the C-terminal domain of Regnase-1 (amino acids 547 to 599 in the case of SEQ ID NO: 2) is referred to as “ΔCTD_Reg1”. “ΔCTD_Reg1” is different from “Regnase-1ΔCTD”, which is a C-terminal domain deletion variant resulting from a frameshift mutation caused by a 1 bp deletion at codon 517, as prepared in Example 13). In addition, the sequence from amino acids 301 to 599 of the full-length human Regnase-1 sequence was designated as C-terminal Regnase-1, and a construct having a FLAG tag on the N-terminal side and a recognition sequence for biotin ligase BirA on the C-terminal side was prepared (Reg1_301-599). The above-mentioned Regnase-1 was expressed in mammalian Expi293 cells, purified with FLAG M2 agarose, and isolated by gel filtration chromatography. When biotinylation was required, methods of nonpatent documents (BMC biotechnology, 2008,8,41; and Protein Science, 1999,8,921-929) were used.
# as §2, §3, §4
# [4] = target: T4, binding between TBK1 and full-length Regnase-1 (FL_Reg1) (Homo sapiens, UniProt Q5D1E8); assay: Inhibition of kinase-Regnase-1 binding by the compounds (AlphaScreen), TBK1; conditions: Table 13; binding between TBK1 and Regnase-1; read-out: Binding inhibition FL_Reg1, 50% inhibition concentration (TBK1)
# T4 construct: made in house; host or cells: Expi293 cells
# T4 sequence (Q5D1E8 1-599): T1 sequence (Q5D1E8 1-599)
# Method: (§5) As a target protein, a construct having a FLAG tag on the N-terminal side and a recognition sequence for biotin ligase BirA on the C-terminal side of the full-length sequence of human Regnase-1 (UniProt ID: Q5D1E8) was prepared (FL_Reg1). The above-mentioned Regnase-1 was expressed in mammalian Expi293 cells, purified with FLAG M2 agarose, and isolated by gel filtration chromatography. When biotinylation was required, methods from nonpatent documents (BMC biotechnology, 2008,8,41; and Protein Science, 1999,8,921-929) were used.
# (§6) After mixing 2.5 nM of the above-mentioned Regnase-1 and the compound, 2.5 nM of IKKβ or TBK1 was added and reacted at room temperature for two hours. Then, Anti FLAG AlphaLISA Acceptor Beads (manufactured by PerkinElmer) and Glutathione-coated AlphaScreen Donor Beads (manufactured by PerkinElmer) were added, and excited luminescence was measured using En Vision (manufactured by PerkinElmer). As the results, the inhibition rate from the signals obtained when adding the compound at each concentration were calculated, by defining the signal obtained with Regnase-1 alone to be 100% inhibition rate, and the signal obtained when the same amount of solvent (DMSO) is added in place of the compound as 0% inhibition rate. The 50% inhibition concentration (μM) was calculated from the obtained dose response curve (Table 12).
# [5] = target: T5, binding between IKKβ and full-length Regnase-1 (FL_Reg1) (Homo sapiens, UniProt Q5D1E8); assay: Inhibition of kinase-Regnase-1 binding by the compounds (AlphaScreen), IKKβ; conditions: Table 14; binding between IKKβ and Regnase-1; read-out: Binding inhibition FL_Reg1, 50% inhibition concentration (IKKβ)
# T5 construct: made in house; host or cells: Expi293 cells
# T5 sequence (Q5D1E8 1-599): T1 sequence (Q5D1E8 1-599)
# Method: as §5, §6
IC50 [1] [µM],IC50 [2] [µM],IC50 [3] [µM],IC50 [4] [µM],IC50 [5] [µM],Structure (SMILES)
18.9,27,47.7,13.1,> 62.1,"C[C@@H]1C(=O)N[C@@H](CCC(=O)O)C(=O)N[C@@H](CC(=O)O)C(=O)N[C@@H]([C@@H](C)O)C(=O)N2CCC[C@H]2C(=O)N[C@@H](CCC(=O)O)C(=O)N[C@@H](CC(=O)O)C(=O)N[C@@H](CC(=O)O)C(=O)N[C@@H](Cc2c[nH]cn2)C(=O)N[C@H](C(=O)N2CCCC2)CC(=O)N1C [PP25] (HELM PEPTIDE1{[C[C@H](C(=O)[*:2])N(C)[*:1]].E.D.T.P.E.D.D.H.D.[C1CCN([*:1])C1]}$PEPTIDE1,PEPTIDE1,1:R1-10:R3$$$V2.0)"
4.2,2.7,,8.3,10.6,"CC[C@H](C)[C@@H]1NC(=O)[C@H](CCCCN)NC(=O)[C@H](Cc2ccc(O)cc2)NC(=O)[C@H](Cc2c[nH]c3ccccc23)NC(=O)[C@H](CO)NC(=O)[C@H](CO)NC(=O)[C@H](Cc2c[nH]cn2)NC(=O)CNC(=O)[C@H](Cc2ccc(O)cc2)NC(=O)[C@H]([C@@H](C)O)NC(=O)[C@@H](C)N(C)C(=O)C[C@@H](C(=O)N2CCCC2)NC(=O)[C@H](Cc2c[nH]c3ccccc23)NC1=O [PP9] (HELM PEPTIDE1{[C[C@H](C(=O)[*:2])N(C)[*:1]].T.Y.G.H.S.S.W.Y.K.I.W.D.[C1CCN([*:1])C1]}$PEPTIDE1,PEPTIDE1,1:R1-13:R3$$$V2.0)"
35.7,5.3,,7.7,8.8,"CC[C@H](C)[C@@H]1NC(=O)[C@H](Cc2c[nH]c3ccccc23)NC(=O)[C@H](C)N(C)C(=O)C[C@@H](C(=O)N2CCCC2)NC(=O)[C@H](CCC(=O)O)NC(=O)[C@H](CC(N)=O)NC(=O)[C@H](Cc2c[nH]c3ccccc23)NC(=O)[C@H](Cc2ccccc2)NC(=O)[C@H](CC(=O)O)NC(=O)[C@H](Cc2c[nH]c3ccccc23)NC1=O [PP24] (HELM PEPTIDE1{[meA].W.I.W.D.F.W.N.E.D.[C1CCN([*:1])C1]}$PEPTIDE1,PEPTIDE1,1:R1-10:R3$$$V2.0)"
